# Measurements: PubChem BioAssay AID1918991 (Molecular Pharmacology Branch, DTP, NCI, 2023)
# Test system: 186277-243-T-J2-PDC complex spheroid growth
# Test: Anticancer human tumor 186277-243-T-J2-PDC patient-derived colon adenocarcinoma cell line growth inhibition [AhR]
# Conditions: for IC50: curve of first compound; for viability, T/C: stronger effect = lower value
# From the text: Multicellular complex tumor spheroid response to aryl hydrocarbon receptor antagonists in combination with a variety of drugs and investigational agents in selected tumor cell lines
# The current study was undertaken to assess response to aryl hydrocarbon receptor antagonists in combination with standard-of-care drugs and investigational agents in solid tumor complex spheroid models. Complex spheroids include a stromal component modeled by human endothelial cells (HUVEC) and fibroblasts modeled by human mesenchymal stem cells (MSCs). The concentration ranges selected for each drug and investigational agent were based upon clinically achievable concentrations if the clinical Cmax of the agent was known.
# Compounds. The drugs and investigational agents: BAY 2416964 (NSC825713), GNF351 (NSC835774), CH-223191 (NSC835775), CPI-455 (NSC825282), aza-TdCyd (NSC777586), decitabine (NSC127716), belinostat (NSC758774), entinostat (NSC756642), pevonedistat (NSC761192), tazemetostat (NSC777109), talazoparib (NSC765396), olaparib (NSC753686), selinexor (NSC780203), nedisertib (M3814, NSC802822), bortezomib (NSC756655), venetoclax (NSC766270), doxorubicin (NSC123127), elimusertib (BAY189344, NSC800525), ceralasertib (AZD6738, NSC777638), TAK-243 (NSC785004), alisertib (NSC759677), etoposide (NSC141540), topotecan (NSC609699), eribulin (NSC707389), gemcitabine (NSC613327), carboplatin (NSC241240), cisplatin (NSC119875), and SN-38 (NSC673596) were obtained from the National Cancer Institute (NCI) Developmental Therapeutics Program Chemical Repository (32). The FDA-approved anticancer drug set is available from the Developmental Therapeutics Program at https://dtp.cancer.gov/organization/dscb/obtaining/available plates.htm. […] The stock solutions were prepared in dimethyl sulfoxide (DMSO, Sigma-Aldrich, St. Louis, MO, cat. D2650), except for the platinum compounds which were prepared in saline (Quality Biological, Gaithersburg, MD, cat. 114-055-101), at 800-fold the tested concentration and stored at -70 degrees C prior to their use. All drugs and investigational agents were tested over a range starting from a high concentration at or near the clinical Cmax and decreasing in half-log increments. If the clinical Cmax for an agent had not been determined, the highest concentration tested was 10 microM (Table 1).
# Cell Culture. All cells were maintained in an incubator at 37 degrees C and 5% CO2 with 95% humidity. The PDC lines were cultured according to standard operating procedures established by the NCI PDMR (https://pdmr.cancer.gov). Briefly, all PDCs were thawed and cultured in Matrigel-coated flasks prepared with a working solution of 1X Ham's F-12 nutrient mix, without supplementation (Invitrogen, Waltham, MA, cat. 11765054), 100 U/mL penicillin-streptomycin (Invitrogen, cat. 15140122), and 2.5% Matrigel (Corning Inc., Corning, NY, cat. 354248) for the first three passages. All PDCs were cultured in complete DMEM/F-12 media containing advanced DMEM/F-12 (Invitrogen, cat. 12634028), 4.9% defined fetal bovine serum, heat inactivated (HyClone Laboratories Inc., Logan, UT, cat. SH30070.03HI), 389 ng/mL hydrocortisone (Sigma-Aldrich, cat. H4001), 9.7 ng/mL human EGF recombinant protein (Invitrogen, cat. PHG0313), 23.4 microg/mL adenine (Sigma-Aldrich, cat. A2786), 97.3 U/mL penicillin-streptomycin (Invitrogen, cat. 15140122), 1.9 mM L-glutamine (Invitrogen, cat. 25030081), and 9.7 microM Y-27632 dihydrochloride (Tocris Bioscience, Bristol, United Kingdom, cat. 1254). The PDCs were cultured in complete DMEM/F12 media without 10 microM Y-27632 dihydrochloride for at least two passages prior to the screen. The established cell lines NCI-H1341 and […] were cultured in DMEM/F-12, HEPES (Invitrogen, cat. 11330032), 5% defined fetal bovine serum (HyClone Laboratories Inc., cat. SH30070.03), ITS premix universal culture supplement [insulin (5 microg/mL), transferrin (5 microg/mL), and selenious acid (5 ng/mL)] […]
# [1] = second compound 0.1 µM, first compound 0.0316 µM
# [2] = second compound 0.1 µM, first compound 0.1 µM
# [3] = second compound 0.1 µM, first compound 0.316 µM
# [4] = second compound 0.1 µM, first compound 1 µM
# [5] = second compound 0.1 µM, first compound 3.16 µM
# [6] = second compound 0.1 µM, first compound 10 µM
# [7] = second compound 0.316 µM, first compound 0.0316 µM
# [8] = second compound 0.316 µM, first compound 0.1 µM
# [9] = second compound 0.316 µM, first compound 0.316 µM
# [10] = second compound 0.316 µM, first compound 1 µM
# [11] = second compound 0.316 µM, first compound 3.16 µM
# [12] = second compound 0.316 µM, first compound 10 µM
# [13] = second compound 1 µM, first compound 0.0316 µM
# [14] = second compound 1 µM, first compound 0.1 µM
# [15] = second compound 1 µM, first compound 0.316 µM
# [16] = second compound 1 µM, first compound 1 µM
# [17] = second compound 1 µM, first compound 3.16 µM
# [18] = second compound 1 µM, first compound 10 µM
# [19] = second compound 3.16 µM, first compound 0.0316 µM
# [20] = second compound 3.16 µM, first compound 0.1 µM
# [21] = second compound 3.16 µM, first compound 0.316 µM
# [22] = second compound 3.16 µM, first compound 1 µM
# [23] = second compound 3.16 µM, first compound 3.16 µM
# [24] = second compound 3.16 µM, first compound 10 µM
# [25] = second compound 10 µM, first compound 0.0316 µM
# [26] = second compound 10 µM, first compound 0.1 µM
# [27] = second compound 10 µM, first compound 0.316 µM
# [28] = second compound 10 µM, first compound 1 µM
# [29] = second compound 10 µM, first compound 3.16 µM
# [30] = second compound 10 µM, first compound 10 µM
# 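Also: spheroids exposed to compounds for seven days before the viability read.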
# 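For viability, T/C in this document: luminescent signal used as a stand-in for viable cell amount; 100% = DMSO vehicle control wells.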
smiles,measurement,setting,value
CCc1c2c(nc3ccc(O)cc13)-c1cc3c(c(=O)n1C2)COC(=O)[C@]3(O)CC + CC(CO)NC(=O)c1cc(-c2ccc(Cl)cc2)nn(-c2cnn(C)c2)c1=O,IC50,second compound 0.1 µM,< 0.949 nM
same,IC50,second compound 0.316 µM,< 0.949 nM
same,IC50,second compound 1 µM,< 0.949 nM
same,IC50,second compound 3.16 µM,< 0.949 nM
same,IC50,second compound 10 µM,< 0.949 nM
same,"viability, T/C","second compound 0.1 µM, first compound 0.000949 µM",38.7%
same,"viability, T/C","second compound 0.1 µM, first compound 0.003 µM",30.1%
same,"viability, T/C","second compound 0.1 µM, first compound 0.00949 µM",22.8%
same,"viability, T/C","second compound 0.1 µM, first compound 0.03 µM",16.7%
same,"viability, T/C","second compound 0.1 µM, first compound 0.0949 µM",10.3%
same,"viability, T/C","second compound 0.1 µM, first compound 0.3 µM",6.69%
same,"viability, T/C","second compound 0.316 µM, first compound 0.000949 µM",38.5%
same,"viability, T/C","second compound 0.316 µM, first compound 0.003 µM",27.1%
same,"viability, T/C","second compound 0.316 µM, first compound 0.00949 µM",21.9%
same,"viability, T/C","second compound 0.316 µM, first compound 0.03 µM",15.6%
same,"viability, T/C","second compound 0.316 µM, first compound 0.0949 µM",8.35%
same,"viability, T/C","second compound 0.316 µM, first compound 0.3 µM",5.97%
same,"viability, T/C","second compound 1 µM, first compound 0.000949 µM",37.8%
same,"viability, T/C","second compound 1 µM, first compound 0.003 µM",28.9%
same,"viability, T/C","second compound 1 µM, first compound 0.00949 µM",24.8%
same,"viability, T/C","second compound 1 µM, first compound 0.03 µM",16.4%
same,"viability, T/C","second compound 1 µM, first compound 0.0949 µM",8.38%
same,"viability, T/C","second compound 1 µM, first compound 0.3 µM",6.06%
same,"viability, T/C","second compound 3.16 µM, first compound 0.000949 µM",31.3%
same,"viability, T/C","second compound 3.16 µM, first compound 0.003 µM",25.4%
same,"viability, T/C","second compound 3.16 µM, first compound 0.00949 µM",24.5%
same,"viability, T/C","second compound 3.16 µM, first compound 0.03 µM",15.3%
same,"viability, T/C","second compound 3.16 µM, first compound 0.0949 µM",9.33%
same,"viability, T/C","second compound 3.16 µM, first compound 0.3 µM",6.42%
same,"viability, T/C","second compound 10 µM, first compound 0.000949 µM",27.5%
same,"viability, T/C","second compound 10 µM, first compound 0.003 µM",25.6%
same,"viability, T/C","second compound 10 µM, first compound 0.00949 µM",22.6%
same,"viability, T/C","second compound 10 µM, first compound 0.03 µM",15.4%
same,"viability, T/C","second compound 10 µM, first compound 0.0949 µM",8.39%
same,"viability, T/C","second compound 10 µM, first compound 0.3 µM",6.77%
Nc1ccn(C2OC(CO)C(O)C2(F)F)c(=O)n1 (stereo not given) + CC(CO)NC(=O)c1cc(-c2ccc(Cl)cc2)nn(-c2cnn(C)c2)c1=O,IC50,second compound 0.1 µM,< 31.6 nM
same,IC50,second compound 0.316 µM,< 31.6 nM
same,IC50,second compound 1 µM,< 31.6 nM
same,IC50,second compound 3.16 µM,< 31.6 nM
same,IC50,second compound 10 µM,< 31.6 nM
same,"viability, T/C",[1],5.01%
same,"viability, T/C",[2],4.63%
same,"viability, T/C",[3],4.51%
same,"viability, T/C",[4],3.71%
same,"viability, T/C",[5],4.16%
same,"viability, T/C",[6],4.38%
same,"viability, T/C",[7],4.41%
same,"viability, T/C",[8],4.36%
same,"viability, T/C",[9],4.44%
same,"viability, T/C",[10],4.03%
same,"viability, T/C",[11],4.3%
same,"viability, T/C",[12],4.3%
same,"viability, T/C",[13],5.04%
same,"viability, T/C",[14],4.97%
same,"viability, T/C",[15],4.99%
same,"viability, T/C",[16],4.1%
same,"viability, T/C",[17],5.44%
same,"viability, T/C",[18],4.54%
same,"viability, T/C",[19],5.3%
same,"viability, T/C",[20],4.96%
same,"viability, T/C",[21],5.78%
same,"viability, T/C",[22],5.41%
same,"viability, T/C",[23],5.04%
same,"viability, T/C",[24],4.36%
same,"viability, T/C",[25],5.62%
same,"viability, T/C",[26],5.79%
same,"viability, T/C",[27],5.42%
same,"viability, T/C",[28],5.48%
same,"viability, T/C",[29],5.6%
same,"viability, T/C",[30],4.96%
O=C(c1cc(Cc2n[nH]c(=O)c3ccccc23)ccc1F)N1CCN(C(=O)C2CC2)CC1 + CC(CO)NC(=O)c1cc(-c2ccc(Cl)cc2)nn(-c2cnn(C)c2)c1=O,IC50,second compound 0.1 µM,6180 nM
same,IC50,second compound 0.316 µM,6460 nM
same,IC50,second compound 1 µM,8510 nM
same,IC50,second compound 3.16 µM,7340 nM
same,IC50,second compound 10 µM,4640 nM
same,"viability, T/C",[1],99.2%
same,"viability, T/C",[2],108%
same,"viability, T/C",[3],102%
same,"viability, T/C",[4],90.3%
same,"viability, T/C",[5],69.9%
same,"viability, T/C",[6],36.1%
same,"viability, T/C",[7],96.3%
same,"viability, T/C",[8],97.2%
same,"viability, T/C",[9],100%
same,"viability, T/C",[10],88.5%
same,"viability, T/C",[11],74.9%
same,"viability, T/C",[12],35.1%
same,"viability, T/C",[13],104%
same,"viability, T/C",[14],95.3%
same,"viability, T/C",[15],98%
same,"viability, T/C",[16],93.7%
same,"viability, T/C",[17],71.6%
same,"viability, T/C",[18],46.5%
same,"viability, T/C",[19],98.1%
same,"viability, T/C",[20],93.2%
same,"viability, T/C",[21],87.9%
same,"viability, T/C",[22],90.9%
same,"viability, T/C",[23],71.9%
same,"viability, T/C",[24],41.7%
same,"viability, T/C",[25],80%
same,"viability, T/C",[26],86.3%
same,"viability, T/C",[27],88.5%
same,"viability, T/C",[28],69.2%
same,"viability, T/C",[29],58.4%
same,"viability, T/C",[30],36.5%
